Data reported in patent US10130677B2, “Antimicrobial peptide and uses thereof” (priority 2013, dated 2018).
Read-outs that look alike come from different tables or passages of the source.

Experiments:
S. aureus JAR060131 = assay type: cell-based, Staphylococcus aureus; conditions: approx. 1 × 10^6 CFU/ml S. aureus JAR, within 2 hrs (Table 2)
Procedure: Polypeptides of the invention preferably have an in vitro IC99.9 of at most 150 μM after 2 hours at 37° C. against at least one microbial species in the presence of 50% plasma. Said IC99.9 is preferably determined in accordance with a method for determining the antimicrobial activity as described herein in the Examples. Said method described in the Examples for determining antimicrobial activity of microbes not associated with biofilm involves the mixing of 50 microL of a solution of a polypeptide in PBS with addition of human plasma at a final concentration of 50% and 20 microL of bacterial suspension with 5×10^6 CFU per mL of PBS in a well. After incubation of this mixture for 2 hours at 37° C. under shaking conditions, a sample is used for assessment of the bacterial counts. The lowest peptide concentration at which there is 99.9% of bacteria killed, is called the inhibitory concentration (IC) 99.9. Bacterial counts can be determined by manual CFU counting. For determining antibacterial activity for instance 1×10^6 CFU/ml bacteria are used, for determining antifungal activity for instance 1×10^5 cells/ml are used.
(§1) Peptides were incubated with 1×10^6 CFU/ml of a mid-logarithmic culture of S. aureus JAR060131, methicillin resistant S. aureus (MRSA) LUH14616, Staphylococcus epidermidis RP62a, and Pseudomonas aeruginosa PAO1 in PBS without or with addition of pooled human plasma (Sanquin, Amsterdam, the Netherlands) at a final concentration of 50%. Antimicrobial activity is expressed as the 99.9% lethal concentration (LC99.9), i.e., the lowest peptide concentration which killed ≥99.9% of bacteria after 2 hours of incubation at 37° C. under shaking conditions.

[1] = test system: Staphylococcus epidermidis RP62a; assay type: cell-based; conditions: 50% plasma
Procedure: as §1

A. niger PagsA-lux = experiment: Effect on fungal growth; assay type: cell-based, Aspergillus niger
Procedure: The effect of the peptides on fungal growth was assessed using Aspergillus niger. Peptides were incubated with 7.5×10^4 spores/ml of A. niger PagsA-lux in PBS without or with addition of pooled human plasma at a final concentration of 25%. As positive control, spores were treated with the antifungal caspofungin (Cancidas). Absorbance was measured over time and at 16 hours, fungal growth was visualized using light microscopy.

[2] = test system: S. aureus JAR060131 biofilm formation; assay type: cell-based, Staphylococcus aureus
Procedure: After solubilization with ethanol, the optical density at 590 nm is determined as a measure of biofilm mass.
Peptides were incubated with 1×10^8 CFU/ml of S. aureus JAR060131 in biofilm-adjusted BM2 in 96-wells polypropylene plates as described in Antimicrob Agents Chemother 2012; 56: 2696-2704. After 24 hours incubation at 37° C., planktonic bacteria were removed by four washes with PBS and biofilms were stained with crystal violet. After solubilization with ethanol, the optical density at 590 nm was determined as a measure of biofilm mass.
To assess the antibiofilm activity of the peptides in the presence of plasma, 96-wells polypropylene plates were coated with plasma by overnight incubation with 20% plasma at 4° C. Wells were washed once with sterile water and inoculated with S. aureus and peptides as described above.

[3] = test system: LPS (E. coli 054)-induced IL-12p40 production; experiment: LPS neutralization in whole human blood; assay type: cell-based
Description: (§2) The term “anti-inflammatory activity” of a polypeptide as used herein refers to inhibiting, reducing or preventing an inflammatory response in a subject that has been infected by microbes, e.g. bacteria, viruses, fungi, and/or parasites. Anti-inflammatory activity of polypeptides of the invention is achieved by inhibiting, reducing or preventing the release of pro-inflammatory microbial compounds, such as lipoteichoic acid (LTA), peptidoglycan (PG) and/or lipopolysaccharides (LPS). Anti-inflammatory activity can be measured by methods known in the art. Examples of such method are a LPS neutralization assay and a LTA neutralization assay as described in the Examples of this application. In such method, a polypeptide of the invention is mixed with a fixed concentration of LPS or LTA, such as 500 ng/ml LPS or 2 mg/ml LTA, and incubated for 30 min. Thereafter, these mixtures were added to diluted fresh human whole blood and 20 hours thereafter the level of cytokines (e.g. 1L-8 for LTA and 1L-12p40 for LPS) in the blood sample are measured by ELISA.
(§3) Peptides were pre-incubated with 500 ng/ml LPS (E. coli 054) or 2 mg/ml LTA (S. aureus, endotoxin-free) or 1×10^9 CFU/ml of UV-killed S. aureus JAR060131 for 30 min at 37° C. Diluted whole human blood was stimulated with the peptide-LPS/LTA/S. aureus mixtures for 20 hours at 37° C. IL-12p40 and IL-8 levels in supernatants were determined using ELISA.

[4] = test system: LTA (S. aureus)-induced IL-8 production; experiment: LTA neutralization in whole human blood; assay type: cell-based
Description: as §2, §3

[5] = test system: UV-killed S. aureus JAR060131-induced IL-8 production; experiment: S. aureus neutralization in whole human blood; assay type: cell-based
Procedure: as §3

Ac-LKRVWKRVFKLLKRYWRQLKKPVR-NH2 [Peptide P148, J LKRVWKRVFKLLKRYWRQLKKPVR B]
IC99.9 (S. aureus JAR060131; 50% plasma): 12.8 µM | IC99.9 (S. aureus JAR060131; PBS): 1.6 µM | higher bactericidal activity as compared to OP-145 [1]: 43 fold | concentration inhibiting A. niger growth (A. niger PagsA-lux; 25% plasma, light micrographs only, 16 hours (FIG. 2)): 102.4 µM | fold higher antifungal activity as compared to OP-145 (A. niger PagsA-lux; PBS): 4 fold | concentration inhibiting A. niger growth (by >99.9%) (A. niger PagsA-lux; PBS, optical density (FIG. 1)): 0.8 µM | IC50 ([2]; JAR060131 biofilm formation, 24 h): 12800 nM | concentration needed to inhibit biofilm formation for 50%, relative to OP-145 and P159 ([2]; plasma-coated wells (FIG. 3B)): two-fold higher concentration | IC90 ([3]; LPS-induced IL-12p40, blood from two donors): 0.25 nM | IC50 ([3]; diluted whole human blood, 20 hours): 0.03 nM | fold increased LTA-neutralizing ability versus OP-145 [4]: 4 fold | IC50 ([4]; LTA-induced IL-8, blood from one donor): 0.195 µM | fold higher concentration than OP-145 needed to inhibit S. aureus-induced IL-8 production for >50% [5]: 8 fold | IC50 ([5]; UV-killed S. aureus JAR060131-induced IL-8, blood from one donor): 1.56 µM
